From PMC12040169 (PLOS Biology, 2025)

Assay: in vitro
Settings: human, hela cells, % viability

## O=C(Nc1ccccn1)c1nccnc1-c1ccc(COc2ccccc2)cc1 [CBK050835]
  viability at 28.5 h, 10 µM: 86.1%

## O=C(NCc1ccco1)c1nccnc1-c1ccc(COc2ccc3c(c2)CCCC3)cc1 [CBK050851]
  viability at 28.5 h, 10 µM: 89.8%

## CC(C)(C)S(=O)(=O)Nc1nccnc1-c1ccc(OCc2ccccc2)cc1 [CBK050886]
  viability at 28.5 h, 10 µM: 89.4%

## O=S(=O)(Nc1nccnc1-c1ccc2c(c1)OCO2)c1ccc(Cl)cc1 [CBK050952]
  viability at 28.5 h, 10 µM: 92.4%

## N#CCn1c(-c2nonc2N)nc2ccccc21 [CBK050974]
  viability at 28.5 h, 10 µM: 92.3%

## CC(C)c1ccc(S(=O)(=O)N2CC3CC2CO3)cc1 (centres unmarked) [CBK050999]
  viability at 28.5 h, 10 µM: 97.3%

## COc1cc([C@@H]2c3cc4c(cc3[C@H](O)[C@H]3COC(=O)[C@@H]23)OCO4)cc(OC)c1OC [CBK051004]
  viability at 28.5 h, 10 µM: 36.3%

## O=S(=O)(Nc1cccnc1N1CCOCC1)c1ccc(F)cc1 [CBK051009]
  viability at 28.5 h, 10 µM: 96.4%

## N#Cc1c[nH]nc1NS(=O)(=O)c1ccc(F)cc1 [CBK051018]
  viability at 28.5 h, 10 µM: 106%

## Cc1cc(NS(=O)(=O)c2ccc(F)cc2)n(C)n1 [CBK051021]
  viability at 28.5 h, 10 µM: 108%

## Cc1ccnc(NS(=O)(=O)c2ccc(NS(=O)(=O)c3ccc(F)cc3)cc2)n1 [CBK051024]
  viability at 28.5 h, 10 µM: 102%

## Cc1c(S(=O)(=O)Nc2ccc(C(=O)c3ccccc3)cc2)cnn1-c1ccccc1 [CBK051034]
  viability at 28.5 h, 10 µM: 96.5%

## O=S(=O)(c1ccccc1)c1cncc(N2CCNCC2)n1 [CBK051078C]
  viability at 28.5 h, 10 µM: 89.3%

## O=C1CN(S(=O)(=O)c2ccc(F)cc2Cl)CCN1 [CBK051081]
  viability at 28.5 h, 10 µM: 109%

## O=C(NCC1COc2ccccc2O1)NC(=O)C1CCNCC1 (centres unmarked) [CBK051096]
  viability at 28.5 h, 10 µM: 91.6%

## CN1CCC(C(=O)NC(=O)NCCOc2cccc3ccccc23)CC1 [CBK051100]
  viability at 28.5 h, 10 µM: 90.1%

## O=S(=O)(c1ccc(Br)cc1)N1CCCCC1CO (centres unmarked) [CBK051127]
  viability at 28.5 h, 10 µM: 116%

## COC(=O)C1CCCCN1S(=O)(=O)c1cccs1 (centres unmarked) [CBK051135]
  viability at 28.5 h, 10 µM: 109%

## CCOC(=O)C1CCN(S(=O)(=O)c2cccs2)CC1 [CBK051137]
  viability at 28.5 h, 10 µM: 92.4%

## Cc1ccc(S(=O)(=O)c2cncc(N3CCNCC3)n2)cc1 [CBK051166C]
  viability at 28.5 h, 10 µM: 101%

## O=C(O)CCC(=O)N1CCCc2ccccc21 [CBK051167]
  viability at 28.5 h, 10 µM: 92.6%

## CN1CCN(S(=O)(=O)c2ccc(C(C)(C)C)cc2)CC1 [CBK051237]
  viability at 28.5 h, 10 µM: 106%

## CCOC(=O)C1CCN(S(=O)(=O)c2cccc3cccnc23)CC1 [CBK051242]
  viability at 28.5 h, 10 µM: 92.5%

## COC(=O)C1CCCCN1S(=O)(=O)c1cccc2cccnc12 (centres unmarked) [CBK051244]
  viability at 28.5 h, 10 µM: 82.2%

## COc1ccc([C@@]23CC[C@@H](NC(=O)Nc4ccc(OC)c(C(F)(F)F)c4)C[C@@H]2N(C)CC3)cc1OC [CBK051268T]
  viability at 28.5 h, 10 µM: 107%

## COc1ccc([C@@]23CC[C@@H](NC(=O)Nc4cccc(-c5nn[nH]n5)c4)C[C@@H]2N(C)CC3)cc1OC [CBK051273T]
  viability at 28.5 h, 10 µM: 87.8%

## COc1ccc(CO)cc1OCc1ccccc1 [CBK051334]
  viability at 28.5 h, 10 µM: 110%

## O=S(=O)(c1cc(Cl)sc1Cl)N1CCCCC1CO (centres unmarked) [CBK051422]
  viability at 28.5 h, 10 µM: 87.2%

## CC(C)(C)c1ccc([S+]([O-])c2cncc(N3CCNCC3)n2)cc1 (centres unmarked) [CBK051434C]
  viability at 28.5 h, 10 µM: 88.4%

## Cc1cc(F)c(S(N)(=O)=O)cc1NC(=O)c1ccc(C(F)(F)F)cc1 [CBK051448]
  viability at 28.5 h, 10 µM: 104%

## COCC1=C(C(=O)OC)[C@H](c2ccc(F)c(F)c2)N(C(=O)NCCCN2CCC(c3cccc(NC(C)=O)c3)CC2)C(=O)N1 [CBK051451C]
  viability at 28.5 h, 10 µM: 93.5%

## c1ccc(CCN2CCC(c3nc(-c4ccccc4)no3)CC2)cc1 [CBK051454]
  viability at 28.5 h, 10 µM: 89.8%

## COc1cccc(-c2noc(C3CCN(CCc4ccccc4)CC3)n2)c1 [CBK051455]
  viability at 28.5 h, 10 µM: 99.7%

## Fc1ccc(-c2noc(C3CCN(CCc4ccccc4)CC3)n2)cc1 [CBK051457]
  viability at 28.5 h, 10 µM: 91.3%

## COc1cccc(-c2noc(C3CCN(CCc4ccc(F)cc4)CC3)n2)c1 [CBK051461]
  viability at 28.5 h, 10 µM: 121%

## Fc1ccc(CCN2CCC(c3nc(-c4cccnc4)no3)CC2)cc1 [CBK051464]
  viability at 28.5 h, 10 µM: 118%

## CC(=O)c1ccc(S(=O)(=O)N2CCCCC2CNC(=O)c2ccco2)cc1 (centres unmarked) [CBK051472]
  viability at 28.5 h, 10 µM: 103%

## Cc1cc(F)c(S(N)(=O)=O)cc1NC(=O)c1cccc(Br)c1 [CBK051488]
  viability at 28.5 h, 10 µM: 90.9%

## O=C(c1nn2c(C(F)(F)F)cc(-c3ccccc3)nc2c1Br)N1CCCCC1 [CBK051497]
  viability at 28.5 h, 10 µM: 97.6%

## CCCNC(=O)c1nn2c(C(F)(F)F)cc(-c3ccccc3)nc2c1Cl [CBK051499]
  viability at 28.5 h, 10 µM: 110%

## COc1cccc(OC)c1OCCN1CCC(CNC(=O)Nc2cccc(C(F)(F)F)c2)CC1 [CBK051512T]
  viability at 28.5 h, 10 µM: 96.7%

## COc1cc(NC(=O)NCC2CCN(CCOc3c(OC)cccc3OC)CC2)cc(OC)c1 [CBK051514]
  viability at 28.5 h, 10 µM: 89.1%

## COc1cccc(OC)c1OCCN1CCC(NC(=O)Nc2ccc(Cl)cn2)CC1 [CBK051515]
  viability at 28.5 h, 10 µM: 94.4%

## N#Cc1cccc(S(=O)(=O)N2CCCCC2CO)c1 (centres unmarked) [CBK051524]
  viability at 28.5 h, 10 µM: 100%

## CNC(=O)C1CCN(S(=O)(=O)c2ccc(C(C)(C)C)cc2)CC1 [CBK051544]
  viability at 28.5 h, 10 µM: 90.3%

## CC(C)(C)c1ccc(C(=O)N2CCN(C(=O)CN3CCOCC3)C2)cc1 [CBK051554C]
  viability at 28.5 h, 10 µM: 112%

## O=C(CN1CCOCC1)N1CCN(C(=O)c2ccc(C(F)(F)F)cc2)C1 [CBK051555C]
  viability at 28.5 h, 10 µM: 92.1%

## C[C@@H]1CN(C)CCN1c1nccnc1OCCOc1cccnc1OCCCCCN(C)C [CBK051566]
  viability at 28.5 h, 10 µM: 103%

## COc1ccc(C)cc1S(=O)(=O)n1ccc2c(OC3CCCN(C)C3)nccc21 (centres unmarked) [CBK051582C]
  viability at 28.5 h, 10 µM: 85.3%

## COc1ccc([C@@]23CC[C@@H](NC(=O)Nc4ncc(Cl)s4)C[C@@H]2N(C)CC3)cc1OC [CBK051620T]
  viability at 28.5 h, 10 µM: 96.1%

## COc1ccc(C)cc1S(=O)(=O)Nc1ccc(O[C@@H]2CCNC2)c2ccccc12 [CBK051622C]
  viability at 28.5 h, 10 µM: 104%

## CS(=O)(=O)NCC1(c2ccccc2)CCN(S(=O)(=O)c2ccc(N3CCOCC3)nc2)CC1 [CBK051634]
  viability at 28.5 h, 10 µM: 90%

## c1cc2[nH]ccc2c(N2CCNCC2)n1 [CBK051673C]
  viability at 28.5 h, 10 µM: 90.7%

## COc1ccc([C@@]23CC[C@@H](NC(=O)Nc4ccc(F)c(F)c4)C[C@@H]2N(C(=O)CN)CC3)cc1OC [CBK051679]
  viability at 28.5 h, 10 µM: 111%

## CC1CN(CC(=O)NC(C)(C)c2ccccc2)CC(C)N1 (centres unmarked) [CBK051693]
  viability at 28.5 h, 10 µM: 83.8%

## Cc1nc(NCCCn2ccnc2)c2ccccc2n1 [CBK051987]
  viability at 28.5 h, 10 µM: 95.1%

## CCOC(=O)CSc1nc2ccccc2c(=O)n1Cc1ccccc1 [CBK054124]
  viability at 28.5 h, 10 µM: 95.4%

## Cn1c(SCC(=O)c2ccccc2)nc2ccccc2c1=O [CBK055260]
  viability at 28.5 h, 10 µM: 87.6%

## COc1ccc([C@@]23CCCN(C(=O)Nc4ccc(C)c(F)c4)C[C@@H]2N(C)CC3)cc1OC [CBK056680T]
  viability at 28.5 h, 10 µM: 110%

## Cc1c(F)cccc1CNC1CCC(NC(=O)OC(C)(C)C)CC1 (centres unmarked) [CBK056691]
  viability at 28.5 h, 10 µM: 85%

## CC(C)(C)OC(=O)NCCNCc1ccccc1Br [CBK056693]
  viability at 28.5 h, 10 µM: 92.1%

## CC(C)(C)OC(=O)NCCNCc1ccccc1C(F)(F)F [CBK056695]
  viability at 28.5 h, 10 µM: 80%

## COc1ccc(F)c(CNCCNC(=O)OC(C)(C)C)c1 [CBK056699]
  viability at 28.5 h, 10 µM: 93.9%

## Cc1c(F)cccc1CNCCNC(=O)OC(C)(C)C [CBK056700]
  viability at 28.5 h, 10 µM: 95.7%

## CC(C)(C)OC(=O)NCc1ccc(CNCc2ccccc2Br)cc1 [CBK056701]
  viability at 28.5 h, 10 µM: 96.6%

## CC(C)(C)OC(=O)NCc1ccc(CNCc2ccc(-c3ccccc3)cc2)cc1 [CBK056706]
  viability at 28.5 h, 10 µM: 96.8%

## Cc1c(F)cccc1CNCc1ccc(CNC(=O)OC(C)(C)C)cc1 [CBK056708]
  viability at 28.5 h, 10 µM: 103%

## Cc1cccc(CNCC2CCN(C(=O)OC(C)(C)C)CC2)n1 [CBK056713]
  viability at 28.5 h, 10 µM: 104%

## CC(C)(C)OC(=O)N1CCC(CNCc2cc(F)cc(F)c2)CC1 [CBK056715]
  viability at 28.5 h, 10 µM: 119%

## Cc1c(F)cccc1CNCC1CCN(C(=O)OC(C)(C)C)CC1 [CBK056717]
  viability at 28.5 h, 10 µM: 85.7%

## CC(C)(C)OC(=O)N1CCC(CNCc2c[nH]c(-c3ccccc3)n2)CC1 [CBK056718]
  viability at 28.5 h, 10 µM: 94.3%

## COc1ccc([C@@]23CC[C@@H](NS(=O)(=O)c4cccc5cccnc45)C[C@@H]2N(C)CC3)cc1OC [CBK056849T]
  viability at 28.5 h, 10 µM: 80.8%

## O=C(OCCC1SC(NC2CC3C=CC2C3)=NC1=O)c1cc(C(F)(F)F)cc(C(F)(F)F)c1 (centres unmarked) [CBK056857T]
  viability at 28.5 h, 10 µM: 100%

## O=C(Nc1cnccn1)c1ccc(Cl)cc1Cl [CBK056922]
  viability at 28.5 h, 10 µM: 85.5%

## CC(C)(C)OC(=O)NCCNC(=O)Nc1ccccc1C(F)(F)F [CBK056940]
  viability at 28.5 h, 10 µM: 98.6%

## CCCCOc1ccc(-c2ccc(C#N)cc2)cc1 [CBK056958]
  viability at 28.5 h, 10 µM: 93%

## COc1ccc2c(c1)CCCN2C(=O)c1sc2ccccc2c1Cl [CBK056960]
  viability at 28.5 h, 10 µM: 90.2%

## O=C(NCCc1ccncc1)c1cccs1 [CBK056969]
  viability at 28.5 h, 10 µM: 107%

## CN(C)C(=O)C(C)(C)Oc1cc(C(F)(F)F)n(C)n1 [CBK056980]
  viability at 28.5 h, 10 µM: 94.2%

## O=S(=O)(c1ccccc1)N1CCCC1c1cccs1 (centres unmarked) [CBK057002]
  viability at 28.5 h, 10 µM: 110%

## CSc1ccccc1NC(=O)c1cc(Cl)sc1Cl [CBK057008]
  viability at 28.5 h, 10 µM: 99.2%

## CC(C)(C)SCCNS(=O)(=O)c1ccc(Cl)c(Cl)c1 [CBK057015]
  viability at 28.5 h, 10 µM: 92.1%

## COC(=O)c1sccc1NC(=O)/C=C/c1ccccc1 [CBK057041]
  viability at 28.5 h, 10 µM: 115%

## N#Cc1c(F)cccc1NCc1cccnc1 [CBK057053]
  viability at 28.5 h, 10 µM: 116%

## CCOC(=O)N1CCN(S(=O)(=O)c2coc(C)c2C(=O)OC)CC1 [CBK057079]
  viability at 28.5 h, 10 µM: 94.7%

## COC(=O)c1cc(OC)c(OC)cc1NC(=O)C1CCC1C(=O)O (centres unmarked) [CBK057084]
  viability at 28.5 h, 10 µM: 82.5%

## OC(CNCc1cccs1)c1ccccc1 (centres unmarked) [CBK057092]
  viability at 28.5 h, 10 µM: 90.8%

## Cc1ccc(OCC(O)CN2CCC(C(N)=O)CC2)cc1C (centres unmarked) [CBK057100]
  viability at 28.5 h, 10 µM: 105%

## COC(=O)c1c(C)oc(C)c1S(=O)(=O)Nc1ccc(C(C)C)cc1 [CBK057115]
  viability at 28.5 h, 10 µM: 88%
